Assay results from patent US7732398B2, “Medicinal uses of mu-opioid receptor agonists” (Cornell Research Foundation, Inc., priority 2000, dated 2010).
Values joined by “and” are separate entries in the source; they are usually repeats but may differ in a detail not shown here. Identical values can stand only once. Marks after values point to notes of the source that are not given here.

Tests used:
Male Sprague-Dawley rats [1] = test: Rat tail-flick test, antinociceptive effects after intrathecal administration; format: in vivo; conditions: for time for which tail-flick latencies were significantly greater than baseline: 3 times ED50, direct percutaneous intrathecal injection, n=8; for Response Latencies: 3 times ED50 intrathecal, at peak analgesia; for Potency Ratios: antinociceptive potency relative to intrathecal morphine (=1); for EDT50: cumulative dose-response, quantal tail-flick test, n=10; for Baseline Latencies: tail-flick latency prior to the administration of any drug, n=4
Procedure: Male Sprague-Dawley rats (300-350 g) were used.
Under light halothane anesthesia a needle connected to a Hamilton syringe was inserted percutaneously between spinal processes of the third and fourth lumbar vertebrae into the intrathecal space. A quick flick of the tail was observed when the tip of the needle entered the intrathecal space and was used as an indicator of successful puncture (Mestre et al., 1994). Drugs were delivered in a volume of 5 μl.
Intrathecal catheterization was performed at least two days prior to the experiment as previously described (Shimoyama et al., 1996). Briefly, under halothane anesthesia, a PE-10 tube was inserted through a small hole made in the atlanto-occipital membrane and threaded 8.5 cm down the intrathecal space to the lumbosacral level of the spinal cord. Drugs were delivered via the catheter in a volume of 5 μl, followed by 10 μl saline to flush the catheter.
To assess the antinociceptive effects of the opioids, the tail-flick test was used. Radiant heat was applied to the tail at 5-8 cm from the tip using a tail-flick apparatus (IITC, Woodland Hills, Calif.). The time from the onset of the heat to the withdrawal of the tail (tail-flick latency) was measured. The intensity of the radiant heat was adjusted so that baseline latencies would fall between 2.5 and 3.5 seconds. To avoid tissue damage the heat stimulus was discontinued after seven seconds. A baseline latency was obtained for each animal prior to the administration of any drug. Subsequent response latencies were determined at designated time points. Analgesic testing was performed by a blinded investigator.
Cumulative dose-response studies were performed for each drug using the tail-flick test (Shimoyama et al., 1996), (Shimoyama et al., 1997). Each drug was tested in a group of ten rats. After measuring the baseline latencies, increasing doses of each drug were administered via an intrathecal catheter until each animal in the group became an analgesic responder. An analgesic responder was defined as one whose response tail-flick latency was two or more times the value of the baseline latency. The response latency after each dosing was determined at peak analgesia, which was 15, 30 and 45 min after the administration of the MOR, DALDA and [Dmt^1]DALDA, respectively (based on preliminary studies). Any subsequent dosing was performed immediately after the determination of response latency. The percentage of analgesic responders in the group of rats for each cumulative dose was calculated, and a cumulative dose-response curve was constructed. The dose-response data were analyzed by the BLISS-21 computer program. This program maximized the log-likelihood function to fit a parallel set of gaussian normal sigmoid curves to the dose-response data and provides ED50 values, 95% confidence interval (CI) and relative potency estimates (Umans and Inturrisi, 1981).
The effect of naloxone on the antinociceptive effects of intrathecal MOR, DALDA and [Dmt^1]DALDA was examined. An equipotent dose (3 times the ED50 value determined in Study 1) of MOR, DALDA or [Dmt^1]DALDA was given via an intrathecal catheter. Tail-flick latencies were measured prior to the administration of any drug and at the time of peak analgesia for each compound (at 15, 30 and 45 minutes after administration, for MOR, DALDA and [Dmt^1]DALDA, respectively). Naloxone hydrochloride at a dose of 82.5 nmol or saline was administered via the intrathecal catheter 10 minutes prior to the second tail-flick testing. Four rats were tested for each combination of drugs. Data were analyzed using the paired t-test.
A dose 3 times the ED50 value of MOR, DALDA, or [Dmt^1]DALDA was administered intrathecally. Tail-flick latencies were measured prior to the administration of any drug (=baseline latency) and at the time of peak analgesia (=response latency). […]

Male Sprague-Dawley rats [2] = test: Respiratory effects: minute ventilation (VE) under 5% CO2 challenge, whole body plethysmography; format: in vivo, rat; conditions: for minimum VE compared with saline group: intrathecal
Procedure: The effects of each drug on minute ventilation (VE) under 5% CO2 challenge were evaluated using whole body plethysmography (Tatsumi et al., 1991). An unrestrained rat was placed in a 3-liter whole-body plethysmograph chamber. After a 15-min acclimation period, a gas mixture of 5% CO2 and 21% O2 in N2 (100% humidified) was supplied into and out of the chamber at a rate of 1000 ml/min, and the animal was allowed to breathe the gas mixture for 5 minutes. After a steady-state ventilatory condition had been reached, with the animal awake and quiet, the inlet and outlet of the chamber were closed and the pressure changes in the box (due to the warming and wetting of the gas inspired by the rat and the cooling and drying of the expired gas) were recorded using a high-gain differential pressure transducer. A calibration volume of 0.2 ml of air was regularly introduced into the chamber during the recordings. The recordings were made for 20 to 30 seconds. Tidal volumes were calculated from the pressure changes using the equation derived by Drorbaugh and Fenn (1955). Respiratory frequencies were determined from the number of respiratory cycles in the recordings and VE values were calculated (tidal volume×frequency).
Rats were randomly assigned to one of 7 groups. The number of rats in each group was 6 to 10. The animals of each group were given 3 times (lower dose) or 30 times (higher dose) the ED50 value (antinociceptive) of MOR, DALDA or [Dmt^1]DALDA, or saline by direct percutaneous intrathecal injection. VE under 5% CO2 challenge was determined prior to and every hour up to 10 hours after the administration of the drug. VE values were expressed as a percentage of the baseline VE value obtained prior to the administration of any drug. The smallest VE value obtained after the administration of a drug (minimum V E) was determined for each animal. Mean values of the minimum V E for animals of each group were compared using the one-way analysis of variance followed by the Dunnett's test. For each animal, respiratory depression was defined as a minimum VE value that is below two standard deviations of the mean (mean−2×SD) of the saline group.
A minimum VE value (see Materials and Methods) less than the mean−(2×S.D.) of the minimum VE value of the saline group was considered a “low minimum VE”.

Male Sprague-Dawley rats [3] = test: Behavioral effects after intrathecal administration; format: in vivo, rat; conditions: for rigidity of the caudal part of the body: higher dose (30 times ED50)
Description: However, they retained their righting reflex.

[4] = naloxone hydrochloride 82.5 nmol intrathecal 10 min prior to measurement
[5] = high dose (30 times antinociceptive ED50)
[6] = low dose (3 times antinociceptive ED50)
[7] = higher dose, 30 times ED50 (Morphine 100 nmol of 10 rats, DALDA 7 nmol of 8, [Dmt1]DALDA 34 pmol of 7)
[8] = lower dose, 3 times ED50 (Morphine 10 nmol, DALDA 0.7 nmol, [Dmt1]DALDA 3.4 pmol), 6 rats per group

For `Cc1cc(O)cc(C)c1C[C@H](N)C(=O)N[C@H](CCCNC(=N)N)C(=O)N[C@@H](Cc1ccccc1)C(=O)N[C@@H](CCCCN)C(N)=O` [[Dmt^1]DALDA, 2′,6′-dimethyl-Tyr-D-Arg-Phe-Lys-NH2], the “time for which tail-flick latencies were significantly greater than baseline” value (Male Sprague-Dawley rats [1]) was 13 h, the “Response Latencies” value (Male Sprague-Dawley rats [1]; [4]) was “not different from baseline values” and the “Response Latencies” value (Male Sprague-Dawley rats [1]; saline 10 min prior to measurement, cut-off 7 s, listed as [Dmt^1]DALDA + saline) was ≥ 7 (cut-off latency)* s. For the same compound, the “potency relative to DALDA in the rat tail flick test” value (Male Sprague-Dawley rats [1]; after intrathecal administration) was 200 fold, the “Potency Ratios” value (Male Sprague-Dawley rats [1]) was 3000 and 3160 and the EDT50 (Male Sprague-Dawley rats [1]; intrathecal) was 1.06 pmol. The “effect of added yohimbine (100 μg) on the antinociceptive effect” value (Male Sprague-Dawley rats [1]; intrathecal, [Dmt1]DALDA 1.1 pmol or DALDA 240 pmol with yohimbine) was “significantly attenuated”, the “Baseline Latencies” value (Male Sprague-Dawley rats [1]) was 2.83 ± 0.17 s and the “minimum VE compared with saline group” value (Male Sprague-Dawley rats [2]; [5]) was “not different”. The “Time of Occurrence of Low Minimum VE” value (Male Sprague-Dawley rats [2]; higher dose, 30 times ED50) was 3 h after administration, the “minimum VE compared with saline group” value (Male Sprague-Dawley rats [2]; [6]) was “not different” and the “rigidity of the caudal part of the body” value (Male Sprague-Dawley rats [3]) was “Rigidity of the caudal part of the body was observed in each animal”.

For `NCCCC[C@H](NC(=O)[C@H](Cc1ccccc1)NC(=O)[C@@H](CCCN=C(N)N)NC(=O)[C@@H](N)Cc1ccc(O)cc1)C(N)=O` [DALDA, H-Tyr-D-Arg-Phe-Lys-NH2], the “time for which tail-flick latencies were significantly greater than baseline” value (Male Sprague-Dawley rats [1]) was 7 h, the “Response Latencies” value (Male Sprague-Dawley rats [1]; [4]) was “not different from baseline values” and the “Response Latencies” value (Male Sprague-Dawley rats [1]; saline 10 min prior to measurement, cut-off 7 s, listed as DALDA + saline) was ≥ 7 (cut-off latency)* s. For the same compound, the “Potency Ratios” value (Male Sprague-Dawley rats [1]) was 14 and 14.1, the EDT50 (Male Sprague-Dawley rats [1]; intrathecal) was 237 pmol and the “Baseline Latencies” value (Male Sprague-Dawley rats [1]) was 2.63 ± 0.15 s. For the same compound, the “minimum VE” value (Male Sprague-Dawley rats [2]; four rats of the higher dose DALDA group) was “less than 60 % of baseline”, the “minimum VE compared with saline group” value (Male Sprague-Dawley rats [2]; [5]) was “significantly lower minimum VE” and the “Time of Occurrence of Low Minimum VE” value (Male Sprague-Dawley rats [2]; higher dose, 30 times ED50) was 3-5 h after administration. For the same compound, the “No. of Rats with Low Minimum VE” value (Male Sprague-Dawley rats [2]; [7]) was 4, the “minimum VE compared with saline group” value (Male Sprague-Dawley rats [2]; [6]) was “significantly lower minimum VE” and the “Time of Occurrence of Low Minimum VE” value (Male Sprague-Dawley rats [2]; lower dose, 3 times ED50) was 3-5 h after administration. For the same compound, the “No. of Rats with Low Minimum VE” value (Male Sprague-Dawley rats [2]; [8]) was 4, the “rigidity of the caudal part of the body” value (Male Sprague-Dawley rats [3]) was “Rigidity of the caudal part of the body was observed in each animal” and the sedative effects (Male Sprague-Dawley rats [3]; higher dose, coincided with respiratory depression) was “showed sedative effects”.

For `CN1CC[C@]23c4c5ccc(O)c4O[C@H]2[C@@H](O)C=C[C@H]3[C@H]1C5` [Morphine, morphine, reference compound], the “time for which tail-flick latencies were significantly greater than baseline” value (Male Sprague-Dawley rats [1]) was 3 h, the “Response Latencies” value (Male Sprague-Dawley rats [1]; [4]) was “not different from baseline values” and the “Response Latencies” value (Male Sprague-Dawley rats [1]; saline 10 min prior to measurement, cut-off 7 s, listed as MOR + saline) was ≥ 7 (cut-off latency)* s. The EDT50 (Male Sprague-Dawley rats [1]; intrathecal) was 3330 pmol, the “Baseline Latencies” value (Male Sprague-Dawley rats [1]) was 2.78 ± 0.50 s and the “minimum VE compared with saline group” value (Male Sprague-Dawley rats [2]; [5]) was “significantly lower”. The “Time of Occurrence of Low Minimum VE” value (Male Sprague-Dawley rats [2]; higher dose, 30 times ED50) was 3-5 h after administration, the “No. of Rats with Low Minimum VE” value (Male Sprague-Dawley rats [2]; [7]) was 4 and the “Time of Occurrence of Low Minimum VE” value (Male Sprague-Dawley rats [2]; lower dose, 3 times ED50) was 4 h after administration. The “No. of Rats with Low Minimum VE” value (Male Sprague-Dawley rats [2]; [8]) was 1, the “No. of Rats with Low Minimum VE” value (Male Sprague-Dawley rats [2]; lower dose, 3 times ED50 (Morphine 10 nmol, DALDA 0.7 nmol, [Dmt1]DALDA 3.4 pmol), 6 rats per group, listed as MOR) was “one” and the “rigidity of the caudal part of the body” value (Male Sprague-Dawley rats [3]) was “Rigidity of the caudal part of the body was observed in each animal”.
